Laboratory results taken from article PMC10341573, “Design, Synthesis, and Biological Evaluation of Novel Quinazolin-4(3H)-One-Based Histone Deacetylase 6 (HDAC6) Inhibitors for Anticancer Activity” (International Journal of Molecular Sciences, 2023).
“And” between values parts separate entries of the source, which are not always exact repeats. Equal values may be shown once. Read-outs that look alike come from different tables or passages of the source.

How the values were obtained:
HEK 293 = experiment: MTT cell proliferation assay, HEK 293; format: cell-based, human; conditions: MTT, 72 h, mean ± SD, triplicate, read-out: IC50 ± SD HEK 293
HDAC4 = molecular target: T1, HDAC4 (Homo sapiens, UniProt P56524); experiment: HDAC enzyme activity assay (fluorogenic, Boc-Lys(trifluoroacetyl)-AMC), HDAC4; format: biochemical; conditions: class IIa HDAC4; mean ± SD, triplicate
T1 construct: catalytic domain of HDAC4 (T648-T1057, full length: UniProt P56524); made in house; host or cells: E. coli BL21(DE3), pET14b vector

MCF7 = experiment: MTT cell proliferation assay, MCF7; format: cell-based, human; conditions: MTT, 72 h, mean ± SD, triplicate, read-out: IC50 ± SD MCF7
HCT116 = experiment: MTT cell proliferation assay, HCT116; format: cell-based, human; conditions: MTT, 72 h, mean ± SD, triplicate, read-out: IC50 ± SD HCT116
HDAC6 = molecular target: T2, HDAC6 (Homo sapiens, UniProt Q9UBN7); experiment: HDAC enzyme activity assay (fluorogenic, Boc-Lys(acetyl)-AMC), HDAC6; format: biochemical; conditions: for IC50: class IIb HDAC6, mean ± SD, triplicate
T2 construct: Full-length recombinant HDAC6 was purchased from BPS Bioscience; purchased BPS Bioscience
T2 sequence (Q9UBN7 1-1215): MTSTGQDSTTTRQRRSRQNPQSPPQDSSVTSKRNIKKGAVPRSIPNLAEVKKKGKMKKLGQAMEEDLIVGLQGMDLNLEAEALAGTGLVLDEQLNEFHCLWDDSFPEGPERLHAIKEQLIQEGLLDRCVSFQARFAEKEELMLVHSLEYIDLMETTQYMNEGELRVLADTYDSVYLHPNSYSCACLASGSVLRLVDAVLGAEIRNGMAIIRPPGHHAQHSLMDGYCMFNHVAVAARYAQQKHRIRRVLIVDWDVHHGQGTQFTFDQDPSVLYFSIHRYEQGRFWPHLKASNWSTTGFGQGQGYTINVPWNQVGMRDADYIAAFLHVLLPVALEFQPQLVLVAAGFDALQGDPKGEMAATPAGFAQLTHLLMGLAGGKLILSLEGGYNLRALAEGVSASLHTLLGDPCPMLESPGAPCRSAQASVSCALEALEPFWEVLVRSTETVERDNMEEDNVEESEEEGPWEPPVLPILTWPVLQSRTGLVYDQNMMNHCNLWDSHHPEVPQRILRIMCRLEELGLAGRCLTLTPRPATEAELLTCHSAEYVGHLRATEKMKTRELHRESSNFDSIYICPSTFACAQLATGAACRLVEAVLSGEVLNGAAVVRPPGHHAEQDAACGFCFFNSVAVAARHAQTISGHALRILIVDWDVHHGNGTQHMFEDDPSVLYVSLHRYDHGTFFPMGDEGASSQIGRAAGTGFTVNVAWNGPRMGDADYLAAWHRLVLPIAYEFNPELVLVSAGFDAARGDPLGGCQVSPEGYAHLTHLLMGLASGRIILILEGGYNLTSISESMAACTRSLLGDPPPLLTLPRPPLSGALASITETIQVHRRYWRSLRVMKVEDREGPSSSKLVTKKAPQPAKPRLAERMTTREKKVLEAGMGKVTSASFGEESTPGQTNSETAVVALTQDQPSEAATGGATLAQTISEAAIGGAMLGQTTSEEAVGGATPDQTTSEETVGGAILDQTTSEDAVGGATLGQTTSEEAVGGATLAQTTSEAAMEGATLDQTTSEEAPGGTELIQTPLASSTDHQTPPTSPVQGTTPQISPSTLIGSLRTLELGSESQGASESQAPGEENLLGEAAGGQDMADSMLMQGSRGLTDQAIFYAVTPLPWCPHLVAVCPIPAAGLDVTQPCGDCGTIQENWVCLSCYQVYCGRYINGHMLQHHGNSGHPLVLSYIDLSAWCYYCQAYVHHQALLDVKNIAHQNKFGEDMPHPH

HDAC8 = molecular target: T3, HDAC8 (Homo sapiens, UniProt Q9BY41); experiment: HDAC enzyme activity assay (fluorogenic, Boc-Lys(trifluoroacetyl)-AMC), HDAC8; format: biochemical; conditions: class I HDAC8; mean ± SD, triplicate
T3 construct: codon-optimized full-length HDAC8; made in house; host or cells: E. coli BL21(DE3), pET14b vector
T3 sequence (Q9BY41 1-377): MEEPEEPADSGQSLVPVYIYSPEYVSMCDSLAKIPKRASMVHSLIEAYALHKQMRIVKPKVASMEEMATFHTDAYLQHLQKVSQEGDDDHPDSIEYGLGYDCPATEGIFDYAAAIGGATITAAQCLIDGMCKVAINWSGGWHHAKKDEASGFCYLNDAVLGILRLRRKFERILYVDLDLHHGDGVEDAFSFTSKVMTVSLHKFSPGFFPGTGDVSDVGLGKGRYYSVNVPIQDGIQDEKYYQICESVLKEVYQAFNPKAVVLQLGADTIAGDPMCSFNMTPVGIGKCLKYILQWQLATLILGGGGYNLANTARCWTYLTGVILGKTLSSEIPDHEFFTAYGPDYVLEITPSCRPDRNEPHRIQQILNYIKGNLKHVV

B16 = experiment: MTT cell proliferation assay, B16; format: cell-based, murine; conditions: MTT, 72 h, mean ± SD, triplicate, read-out: IC50 ± SD B16

T1 sequence (P56524 648-1057): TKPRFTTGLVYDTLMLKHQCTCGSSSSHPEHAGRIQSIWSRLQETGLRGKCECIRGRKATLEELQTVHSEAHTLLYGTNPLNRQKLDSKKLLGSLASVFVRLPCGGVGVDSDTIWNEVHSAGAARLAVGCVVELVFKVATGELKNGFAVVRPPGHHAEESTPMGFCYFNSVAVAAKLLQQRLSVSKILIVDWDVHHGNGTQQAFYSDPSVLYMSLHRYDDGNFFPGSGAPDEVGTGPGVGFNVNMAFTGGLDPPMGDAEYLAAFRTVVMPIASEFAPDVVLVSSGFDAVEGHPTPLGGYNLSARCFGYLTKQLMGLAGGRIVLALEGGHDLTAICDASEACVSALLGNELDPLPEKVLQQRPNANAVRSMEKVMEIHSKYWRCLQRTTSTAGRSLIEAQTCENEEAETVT

Row | IC50 (HDAC4) | IC50 (MCF7; Homo sapiens, MCF7, 72 h) | IC50 (HCT116; Homo sapiens, HCT-116) | IC50 (HDAC6) | IC50 (HDAC8) | IC50 (B16; Mus musculus, B16) | melting point | SMILES | IC50 (HEK 293; Homo sapiens, HEK293) | selectivity against class IIa HDAC4 (HDAC6; HDAC6 versus HDAC4) | selectivity against class I HDAC8 (HDAC6; HDAC6 versus HDAC8) | IC50 (HEK 293) | IC50 (MCF7) | IC50 (HCT116) | IC50 (B16)
1 | 8.4 ± 1.2 µM | > 50 µM | 40.4 ± 16 µM | 0.36 ± 0.04 µM | 2.9 ± 0.6 µM | > 50 µM | – | O=C(NO)c1ccc(CSc2nc3ccccc3c(=O)n2-c2ccccc2F)cc1 [Compound 5i, 4-(((3-(2-fluorophenyl)-4-oxo-3,4-dihydroquinazolin-2-yl)thio)methyl)-N-hydroxybenzamide] | > 50 µM | – | – | – | – | – | –
2 | 4.3 ± 1.2 µM | > 50 µM | > 50 µM | 0.65 ± 0.07 µM | 4 ± 1 µM | > 50 µM | – | O=C(NO)c1ccc(CSc2nc3cc(Cl)ccc3c(=O)n2-c2ccccc2)cc1 [Compound 5j, 4-(((7-chloro-4-oxo-3-phenyl-3,4-dihydroquinazolin-2-yl)thio)methyl)-N-hydroxybenzamide] | > 50 µM | – | – | – | – | – | –
3 | 0.56 ± 0.24 µM | > 50 µM | > 50 µM | 0.21 ± 0.05 µM | 3.3 ± 0.9 µM | > 50 µM | – | O=C(NO)c1ccc(CSc2nc3cc(Cl)ccc3c(=O)n2-c2ccccc2F)cc1 [Compound 5m, 4-(((7-chloro-3-(2-fluorophenyl)-4-oxo-3,4-dihydroquinazolin-2-yl)thio)methyl)-N-hydroxybenzamide] | > 50 µM | – | – | – | – | – | –
4 | 0.4 ± 0.14 µM | > 50 µM | > 50 µM | 0.22 ± 0.05 µM | 2.7 ± 0.6 µM | > 50 µM | – | Cc1cccc2nc(SCc3ccc(C(=O)NO)cc3)n(-c3ccccc3)c(=O)c12 [Compound 5p, N-hydroxy-4-(((5-methyl-4-oxo-3-phenyl-3,4-dihydroquinazolin-2-yl)thio)methyl)benzamide] | > 50 µM | – | – | – | – | – | –
5 | 0.91 ± 0.33 µM | > 50 µM | > 50 µM | 0.86 ± 0.06 µM | 5.9 ± 0.8 µM | > 50 µM | – | Cc1cccc2nc(SCc3ccc(C(=O)NO)cc3)n(-c3ccc(Cl)cc3)c(=O)c12 [Compound 5s, 4-(((3-(4-chlorophenyl)-5-methyl-4-oxo-3,4-dihydroquinazolin-2-yl)thio)methyl)-N-hydroxybenzamide] | > 50 µM | – | – | – | – | – | –
6 | – | > 50 µM | > 50 µM | – | – | > 50 µM | – | C#Cc1cccc(Nc2ncnc3cc(OCCOC)c(OCCOC)cc23)c1 [Erlotinib, reference compound] | > 50 µM | – | – | – | – | – | –
7 | – | 12.7 ± 4.68 µM | 1.34 ± 0.04 µM | – | – | 1.99 ± 0.25 µM | – | CN1CCc2c(c3ccccc3n2Cc2ccc(C(=O)NO)cc2)C1 [Tubastatin, reference compound] | 1.26 ± 0.29 µM | – | – | – | – | – | –

Second part, the compound before the results:

Row | SMILES | IC50 (HDAC4) | IC50 (MCF7; Homo sapiens, MCF7, 72 h) | IC50 (HCT116; Homo sapiens, HCT-116) | IC50 (HDAC6) | IC50 (HDAC8) | IC50 (B16; Mus musculus, B16) | melting point | IC50 (HEK 293; Homo sapiens, HEK293) | selectivity against class IIa HDAC4 (HDAC6; HDAC6 versus HDAC4) | selectivity against class I HDAC8 (HDAC6; HDAC6 versus HDAC8) | IC50 (HEK 293) | IC50 (MCF7) | IC50 (HCT116) | IC50 (B16)
8 | O=C(NO)c1ccc(CSc2nc3ccccc3c(=O)n2-c2ccc(Cl)cc2)cc1 [Compound 5a, 4-(((3-(4-chlorophenyl)-4-oxo-3,4-dihydroquinazolin-2-yl)thio)methyl)-N-hydroxybenzamide] | 4.5 ± 1.2 µM | 26.5 ± 3.5 µM | 46.2 ± 20 µM | 5.6 ± 0.6 µM | 24 µM | 48.8 ± 9.68 µM | – | 30.9 µM | – | – | – | – | – | –
9 | O=C(NO)c1ccc(CSc2nc3ccccc3c(=O)n2-c2ccccc2)cc1 [Compound 5b, N-hydroxy-4-(((4-oxo-3-phenyl-3,4-dihydroquinazolin-2-yl)thio)methyl)benzamide] | 2.3 ± 1.1 µM | 24.3 ± 5.97 µM | 17.6 ± 1.77 µM | 0.15 ± 0.01 µM | 1.4 ± 0.3 µM | 28.9 ± 2.32 µM | – | 26.4 ± 5 µM | – | – | – | – | – | –
10 | CCc1ccc(-n2c(SCc3ccc(C(=O)NO)cc3)nc3ccccc3c2=O)cc1 [Compound 5d, 4-(((3-(4-ethylphenyl)-4-oxo-3,4-dihydroquinazolin-2-yl)thio)methyl)-N-hydroxybenzamide] | 0.64 ± 0.37 µM | 21.7 ± 2.47 µM | 34.5 ± 10.4 µM | 0.28 ± 0.06 µM | 2.3 ± 0.8 µM | 29.8 ± 8.72 µM | 150 to 157 °C and 155 to 157 °C | > 50 µM | – | – | – | – | – | –
11 | O=C(NO)c1ccc(CSc2nc3ccccc3c(=O)n2-c2ccc(Br)cc2)cc1 [Compound 5e, 4-(((3-(4-bromophenyl)-4-oxo-3,4-dihydroquinazolin-2-yl)thio)methyl)-N-hydroxybenzamide] | 1.1 ± 0.4 µM | 44.6 ± 1.07 µM | 46.4 ± 17.8 µM | 1.1 ± 0.1 µM | 3 ± 0.5 µM | 26.1 ± 1.27 µM | – | > 50 µM | – | – | – | – | – | –
12 | Cc1ccc(-n2c(SCc3ccc(C(=O)NO)cc3)nc3ccccc3c2=O)cc1C [Compound 5f, 4-(((3-(3,4-dimethylphenyl)-4-oxo-3,4-dihydroquinazolin-2-yl)thio)methyl)-N-hydroxybenzamide] | 1.6 ± 0.9 µM | > 50 µM | > 50 µM | 0.49 ± 0.12 µM | 3 ± 1 µM | > 50 µM | 138 to 144 °C and 142 to 144 °C | > 50 µM | – | – | – | – | – | –
13 | Cc1cccc(-n2c(SCc3ccc(C(=O)NO)cc3)nc3ccccc3c2=O)c1 [Compound 5g, N-hydroxy-4-(((4-oxo-3-(m-tolyl)-3,4-dihydroquinazolin-2-yl)thio)methyl)benzamide] | 0.87 ± 0.31 µM | 25.3 ± 3.21 µM | 30.7 ± 15.8 µM | 0.26 ± 0.02 µM | 0.79 ± 0.16 µM | 23 ± 13.7 µM | – | > 50 µM | – | – | – | – | – | –
14 | O=C(NO)c1ccc(CSc2nc3ccccc3c(=O)n2-c2cccc(Cl)c2)cc1 [Compound 5h, 4-(((3-(3-chlorophenyl)-4-oxo-3,4-dihydroquinazolin-2-yl)thio)methyl)-N-hydroxybenzamide] | 1.4 ± 0.5 µM | > 50 µM | > 50 µM | 0.17 ± 0.03 µM | 1.1 ± 0.3 µM | > 50 µM | – | > 50 µM | – | – | – | – | – | –
15 | Cc1ccc(-n2c(SCc3ccc(C(=O)NO)cc3)nc3cc(Cl)ccc3c2=O)cc1C [Compound 5o, 4-(((7-chloro-3-(3,4-dimethylphenyl)-4-oxo-3,4-dihydroquinazolin-2-yl)thio)methyl)-N-hydroxybenzamide] | 7.1 ± 1.1 µM | > 50 µM | > 50 µM | 0.4 µM and 0.39 µM | 14 µM | > 50 µM | – | > 50 µM | 18 fold | 36 fold | – | – | – | –
16 | CC(/C=C/C(=O)NO)=C\[C@@H](C)C(=O)c1ccc(N(C)C)cc1 [Trichostatin A, reference compound] | – | – | – | – | – | – | – | – | – | – | 15.3 ± 1.45 µM | 42.5 ± 11.3 µM | 18.3 ± 5.63 µM | 28.9 ± 13 µM
